# In patent US10010572B2, “Composition for musculoskeletal pain” (priority 2015, dated 2018):
# Tested on: chronic musculoskeletal pain
# Experiment: Randomized, double-blind, placebo-controlled clinical study of topical analgesics (St. Lucia), Subjective Pain Intensity Rating (SPIR)
# Excerpt: Chronic musculoskeletal pain is relatively common in all age groups and may be the result of work-related trauma, sports-related injuries, postural events, various traumas and the natural aging process. Pharmaceutical agents including non-steroidal anti-inflammatory drugs acetaminophen, opioids and other drugs are frequently used to treat such patients. Because of the potential adverse effects associated with most of these drugs, one embodiment of the present invention, a topical analgesic, with coconut oil as a base ingredient and other natural oils, was clinically tested to determine its efficacy in the management of chronic musculoskeletal pain.
# One hundred ninety six (196) patients were enrolled in the study. The patients were randomized to the 3 groups using the nQuery Advisor version 7.0 software protocol.
# After obtaining permission from the Committee for the Protection of Human Subjects attached to the St. Lucia Pain Institute, the Ministry of Health in St. Lucia and the St. Lucia Medical and Dental Association Ethics Committee, a randomized, double-blind, placebo-controlled study was designed and implemented in the Caribbean island of St. Lucia. St. Lucia was chosen as the study site for a number of reasons: that population is relatively opioid-naive; chronic musculoskeletal pain is quite common, and most patients tend to use and in some cases, prefer to use topical analgesics for musculoskeletal pain management instead of oral or other parenteral medications. Moreover, the Principal Investigator (inventor of the present invention) lives in St. Lucia for part of the year. One hundred and ninety-six (196) patients were enrolled in the study and were subsequently randomized to a pre-determined computerized protocol. […] The Diclofenac ointment was dispensed in a label-less tube.
# All patients were initially evaluated by the Principal Investigator and another investigator after triage screening by the Study Coordinator. At that screening, the patients were assessed using the inclusionary and exclusionary criteria. […] Patients were recruited via television, radio and newspaper announcements, and interviews announcing the study. […] This study was supported and funded by three St. Lucian Financial Institutions.
# Subjective Pain Intensity Rating (SPIR) was determined on each patient using a scale of 0 (no pain) to 10 (the maximum possible pain, e.g. immersion of the hand in boiling water). That raw score was multiplied by 10 to obtain a percentage score. […] After successful enrollment, patients were randomized to one of the 3 groups. Patients were dispensed with 5 ounces of one of the 3 medications and were instructed to apply the medication twice daily for 2 weeks.
# All patients were contacted by the Study Coordinator after 2 weeks and pain score (as described above), satisfaction with the drug, satisfaction with the overall study and the presence of adverse effects were determined. Then, 2 weeks later (4 weeks after study commencement), patients were asked to return to the study office (St. Lucia Pain Institute office) for follow-up clinical evaluation and determination of pain score, adverse effects and related data similar to what was obtained at 2 weeks.
smiles,measurement,setting,value
O=C(O)Cc1ccccc1Nc1c(Cl)cccc1Cl [Diclofenac],Median pain score at 3 months,"100 point scale, 3 month post-study telephone interview",25%
same,Median change in pain from baseline to 3 months (decrease),"100 point scale, decrease, not statistically significant among groups",30%
same,patients with progressive radicular pain and paresthesiae (major adverse effect),"after 5 days, subsided on discontinuation, reappeared on re-introduction, study discontinued in that patient after 8 days",One
same,change in SPIR pain score from baseline to 2 weeks,"patients with chronic axial musculoskeletal pain, topical twice daily, baseline to 2 weeks, all p<0.0001",corresponding decreases in pain scores
same,change in SPIR pain score from baseline to 4 weeks,"patients with chronic axial musculoskeletal pain, topical twice daily, baseline to 4 weeks, all p<0.0001",corresponding decreases in pain scores
same,patients who developed superficial skin rashes,receded without therapy when the drug was discontinued,Four
